What was measured:
[1] = system: MC3T3-E1 pre-osteoblast cells
Text: FIG. 14A is a graph showing in vitro testing with MC3T3-E1 pre-osteoblast cells to establish cytotoxicity of hydrogen peroxide.
FIG. 14B is a graph showing in vitro testing with MC3T3-E1 pre-osteoblast cells to establish cytotoxicity of ethyl pyruvate.
(§1) As shown in FIGS. 14A and 14B, in vitro cytotoxicity profiles were first established for H2O2 and ethyl pyruvate with MC3T3-E1 pre-osteoblast cells.

MC3T3-E1 cells = type: cell-based; conditions: MC3T3-E1, + 1 mM H2O2
Text: FIG. 14C is a graph showing a cell saving study capability test of released ethyl pyruvate and degraded ethyl pyruvate.
as §1

[2] = cited from earlier work
[3] = EPTK degradation and ethyl pyruvate release in H2O2 (NMR, HPLC); type: physicochemical
Text: FIG. 13B is an NMR spectrum of the thioketal peak after three days of degradation in varying ROS concentrations
A new thioketal linker was synthesized containing the small molecule therapeutic ethyl pyruvate (FIG. 12).

Compound: OO [H2O2, hydrogen peroxide]
- cell death ([1]; dose of 1 mM, over 24 hrs, MC3T3-E1): ~50%

Compound: CCOC(=O)C(C)=O [ethyl pyruvate]
- dose at which toxicity is displayed ([1]; mouse): ≥ 10 mM
- protection of cells from oxidative toxicity (MC3T3-E1 cells): robust protection

Compound: CC(=O)[C@H]1CC[C@H]2[C@@H]3CCC4=CC(=O)CC[C@]4(C)[C@H]3CC[C@]12C [progesterone]
- Log P [2]: 3.78

Compound: Cc1ccc(C(=O)c2ccc(CC(=O)O)n2C)cc1 [tolmetin]
- Log P [2]: 2.07

Compound: ethyl pyruvate thioketal [EPTK]
- release of intact ethyl pyruvate ([3]; 200 mM H2O2 for 48 hrs, HPLC): intact ethyl pyruvate matching the original drug's character was released
- degradation of thioketal bond ([3]; escalating doses of H2O2, NMR, three days): dose-dependent degradation
- rate of ethyl pyruvate release ([3]; increasing doses of ROS): increased the rate of ethyl pyruvate release
- protection of cells from oxidative toxicity (MC3T3-E1 cells): some inherent antioxidant protection

— US20240408271A1, “Functionalized Linkers in Responsive Biomaterials” (priority 2021, published 2024)
